Publication doi:10.1101/2022.12.01.518659v1 (biorxiv, 2022)
Where a name gives a salt, the structure may show the parent alone.

These molecules were tested against Atx3 13Q (Homo sapiens, UniProt P54252, OF/POLYQ/Q/TRACT) (assay: ThT fluorescence aggregation assay).
Format: biochemical

Sequence of Atx3 13Q (P54252 whole entry, change not shown): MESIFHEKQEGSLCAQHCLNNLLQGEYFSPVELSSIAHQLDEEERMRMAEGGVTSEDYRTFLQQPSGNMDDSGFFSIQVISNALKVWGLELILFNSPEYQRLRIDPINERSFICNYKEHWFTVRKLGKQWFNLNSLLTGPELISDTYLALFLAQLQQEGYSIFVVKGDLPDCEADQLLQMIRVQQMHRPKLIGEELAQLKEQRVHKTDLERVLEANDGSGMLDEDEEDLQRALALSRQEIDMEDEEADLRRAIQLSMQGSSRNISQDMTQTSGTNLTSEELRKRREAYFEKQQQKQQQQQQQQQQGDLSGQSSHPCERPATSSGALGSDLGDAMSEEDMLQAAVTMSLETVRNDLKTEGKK

IC50 | SMILES
0.02 µM | Cc1ccc(C(=O)c2cc(O)c(O)c([N+](=O)[O-])c2)cc1 [tolcapone]
0.08 µM | Cc1cc(C2CCCCC2)n(O)c(=O)c1 [ciclopirox ethanolamine]
0.11 µM | NCCc1ccc(O)c(O)c1 [dopamine hydrochloride]
0.12 µM | O=C(O)CN(CCN(CC(=O)O)CC(=O)O)CCN(CC(=O)O)CC(=O)O [pentetic acid]
